Data reported in patent publication US11806393B2, “Flavivirus peptide sequences, epitopes, and methods and uses thereof” (priority 2017, dated 2023).

Key:
Assay type in all cases: cell-based, mouse
CD3+CD8+ T cells = test: IFNγ ICS, ZIKV-infected Ifnar-/- HLA-B*0702 transgenic mice; conditions: for % IFNγ+ CD8+ T cells, MR766 / % IFNγ+ CD8+ T cells, FSS13025: HLA-B*0702 mice; for % IFNγ+ CD8+ T cells, MR766: 7 days after ZIKV MR766, ICS; for % IFNγ+ CD8+ T cells, FSS13025: 7 days after ZIKV FSS13025, ICS; for simultaneous IFNγ and TNFα secretion by peptide-stimulated CD8+ T cells: mice infected with either ZIKV FSS13025 or ZIKV MR766
Description: (§1) Two ZIKV strains, MR766 (Uganda, 1947) and FSS13025 (Cambodia, 2010), were obtained from the World Reference Center for Emerging Viruses and Arboviruses (WRCEVA). The mouse-adapted DENV2 strain S221 is a triple-plaque purified clone derived from DENV2 D2S1038. Both ZIKV and DENV2 were amplified in C6/36 mosquito cells, and viral titers were measured using baby hamster kidney (BHK)-21 cell-based focus forming assay (FFA). For epitope screening, 5-week old mice (female or male) were infected retro-orbitally (R.O.) with either 1×102 FFU of ZIKV FSS13025 or ZIKV MR766, or 2×10^4 FFU of DENV2 S221 in 200 μl 10% FBS/PBS. Seven days after infection, CD8^+ T cells were isolated from splenocytes and used for ELISPOT assay, while the splenocytes were directly used for ICS assay. Additionally, 5-week old mice were inoculated I.P. with 2×10^3 FFU of DENV2 S221 for 4 weeks.
(§2) Spleens were harvested from virus-infected, mock-immunized, or peptide-immunized mice. 1×10^6 splenocytes were plated in each well of 96-well U-bottom plates and stimulated with individual peptide (10 μg crude peptide or 1 μg pure peptide per well) for 6 hours. Five hours before the end of incubation, Brefeldin A (GolgiPlug; BD Biosciences) and PE-conjugated anti CD107a mAb (clone 1D4B, eBioscience) were added to the cells. Splenocytes stimulated with PMA-ionomycin were used as the positive control, while cells without any stimulation were the negative control. […] Samples were run using an LSR™ II (BD Biosciences) and analyzed using FLOWJO™ software X 10.0.7 (Tree Star, Ashland, Oreg.).
Data represent the average of two independent experiments and are expressed as mean±SEM. *, P<0.05; **, P<0.01; Two-tailed Mann-Whitney test. P/I denotes PMA/ionomycin.

CD8+ T cells [1] = test: IFNγ ELISPOT, ZIKV-infected Ifnar-/- HLA-B*0702 transgenic mice; conditions: HLA-B*0702 mice; for SFC/10^6 CD8+ T cells, MR766: 7 days after 1×10^2 FFU ZIKV MR766; for SFC/10^6 CD8+ T cells, FSS13025: 7 days after 1×10^2 FFU ZIKV FSS13025; for immunodominance in IFNγ ELISPOT: immunodominant: >500 SFCs/10^6 CD8+ T cells, shared by both ZIKV strains
Description: as §1
(§3) CD8^+ T cells were isolated from splenocytes using magnetic bead positive selection (Miltenyi Biotec, Germany) 7 days after virus infection. 2×10^5 CD8^+ T cells were stimulated with 1×10^5 LPS-blasts loaded with 10 μg of individual peptide in 96-well flat-bottom plates (IMMOBILON™-P; Millipore, Bedford, Mass.) that were coated with anti-IFNγ mAb (clone AN18; Mabtech, Stockholm, Sweden) in triplicate. Concanavalin A (ConA) was used as positive control. After 20 hours of incubation, biotinylated anti-mouse IFNγ mAb (R4-6A2; Mabtech), followed by ABC peroxidase (Vector Laboratories, Burlingame, Calif., USA) and then 3-amino-9-ethylcarbazole (Sigma-Aldrich, St. Louis, Mo., USA) were added into the wells. […] A peptide inducing a magnitude of >500 SFCs/10^6 CD8^+ T cells was considered as an immunodominant peptide.
Two independent experiments performed in triplicate were averaged and the error bars represent the SEM. The data are expressed as the mean number of spot forming cells (SFC) per 10^6 CD8^+ T cells. The criteria for positivity were net SFC per 10^6 cells of >20, and a stimulation index of >2.0 when compared with the negative control. Dotted lines represent the cutoff value. * Indicates a positive response. […] ConA denotes Concanavalin A.

CD8+ T cells [2] = test: IFNγ ELISPOT, DENV2 S221-infected Ifnar-/- HLA-B*0702 transgenic mice; conditions: HLA-B*0702 mice, 7 days after 2×10^4 FFU DENV2 S221
Description: as §1, §3
(§4) The following results are with respect to FIG. 14A and FIG. 14B, where Ifnar^−/− HLA-B*0702 transgenic mice were infected R.O. with 2×10^4 FFU of DENV2 strain S221 for 7 days. CD8^+ T cells isolated from splenocytes were stimulated with each of the 37 ZIKV epitopes identified via IFNγELISPOT to perform (FIG. 14A) IFNγELISPOT and (FIG. 14B) ICS assay. Data represent the average of two independent IFNγELISPOT experiments and two independent ICS experiments (n=7 mice) and are expressed as mean±SEM. Dotted line corresponds to the cutoff value. *, P<0.05.

CD44+CD62L- CD8+ T cells = test: ICS, peptide-immunized Ifnar-/- HLA-B*0702 mice challenged with ZIKV; conditions: day 3 after ZIKV challenge; for percentage of IFNγ-producing cells among antigen experienced (CD44+CD62L-) CD8+ T cells: mice immunized with the 3 ZIKV immunodominant epitopes
Text: Two HLA-B*0702-binding ZIKV-specific peptides (FSS-NS2A133-141(SEQ ID NO: 41) and FSS/MR766-NS2B68-75 (SEQ ID NO: 45)) and four ZIKV/DENV cross-reactive peptides (FSS/MR766-NS4B426-435 (SEQ ID NO: 60), FSS/MR766-NS2A75-84 (SEQ ID NO: 39), FSS/MR766-NS3206-215 (SEQ ID NO: 47), and FSS/MR766-NS3574-582 (SEQ ID NO: 52)) were chosen for synthesis. Five HLA-A*0101-binding peptides (FSS/MR-E159-167 (SEQ ID NO: 70), FSS/MR-E195-203 (SEQ ID NO: 71), FSS/MR-NS123-31 (SEQ ID NO: 74), FSS/MR-NS4B231-239 (SEQ ID NO: 77), and FSS/MR-NS5509-517 (SEQ ID NO: 79)) were chosen for synthesis. Mice (both female and male; 5-6 weeks of age) were immunized subcutaneously with a mixture of HCV helper peptide (100 μg/mouse) and 3 or 4 HLA-B*0702-binding peptides (50 μg/peptide/mouse) emulsified in Complete Freund's Adjuvant (CFA). Mock group mice received the same immunization strategy but without any ZIKV-specific or ZIKV/DENV cross-reactive peptide. On the 21st day, mice were boosted with the same peptide mixtures emulsified in Incomplete Freund's Adjuvant (IFA). […] Three days post ZIKV infection mice were sacrificed, and serum and spleen were harvested. The splenocytes were used for ICS assay. After cardiac perfusion with PBS, brain was harvested. The levels of infectious ZIKV in serum and brain were measured using FFA.
as §2
Peptide groups received corresponding peptide immunizations as described in Materials and Methods. […] CD3^+CD8^+CD44^+CD62L− T cells were gated and the percentages of IFNγ^+ and/or TNFα^+ cells in a representative mouse from mock (FIG. 12A) and peptide (FIG. 12B) groups were determined by ICS. The levels of infectious ZIKV in sera and brains were measured via FFA. Data were expressed as mean±SEM. *, P<0.05; **, P<0.01; ***, P<0.001. Two-tailed Mann-Whitney test.

CD8+ T cells [3] = test: IFNγ ICS, DENV2 S221-infected Ifnar-/- HLA-B*0702 transgenic mice; conditions: HLA-B*0702 mice; for % IFNγ+ CD8+ T cells, S221: 7 days after DENV2 S221, ICS; for ZIKV/DENV cross-reactivity in DENV2-infected mice (IFNγ ELISPOT and IFNγ ICS): DENV2 S221, 7 days
Description: as §1, §2, §4

CD8+ T cells [4] = test: ICS, DENV2-immune Ifnar-/- HLA-B*0702 mice challenged with ZIKV FSS13025; conditions: day 3 after ZIKV FSS13025 challenge
Description: as §1
Spleens were harvested from virus-infected, mock-immunized, or peptide-immunized mice. 1×10^6 splenocytes were plated in each well of 96-well U-bottom plates and stimulated with individual peptide (10 μg crude peptide or 1 μg pure peptide per well) for 6 hours. Five hours before the end of incubation, Brefeldin A (GolgiPlug; BD Biosciences) and PE-conjugated anti CD107a mAb (clone 1D4B, eBioscience) were added to the cells. Splenocytes stimulated with PMA-ionomycin were used as the positive control, while cells without any stimulation were the negative control. After incubation, cells were first stained with PERCPCY™ 5.5-conjugated anti-CD3 mAb (Clone 145-2C11, TONBO), PE-CY7™-conjugated anti-CD8 mAb (clone 53-67, BD Biosciences), EFLUOR™ 450-conjugated anti-CD44 mAb (clone IM7, eBioscience), and APC eFluor 780-conjugated anti-CD62L mAb (clone Mel-14, eBioscience). Cells were then fixed and permeabilized using CYTOFIX/CYTOPERM™ solution (BD Biosciences), followed by staining with FITC-conjugated anti-IFNγ mAb (clone XMG 1.2, TONBO) and APC-conjugated anti-TNFα mAb (clone MP6-XT22, eBioscience). Samples were run using an LSR™ II (BD Biosciences) and analyzed using FLOWJO™ software X 10.0.7 (Tree Star, Ashland, Oreg.).
The following results are with respect to FIG. 11 to FIG. 11E, where Ifnar^−/− HLA-B*0702 transgenic mice were inoculated I.P. with 2×10^3 FFU of DENV2 strain S221 for 4 weeks. Naive mice (n=5) and DENV2 strain S221-immune mice (n=5) were challenged R.O. with 1×10^4 FU of ZIKV FSS13025 for three days, and the percentages of peptide-specific IFNγ^+ and/or TNFα^+ CD8^+ T cells were detected by ICS (FIG. 11A and FIG. 11B). […] Data were expressed as mean±SEM. *, P<0.05; **, P<0.01; Two-tailed ann-Whitney test. Black “*” indicates ZIKV-specific response while bold “*” represents ZIKV/DENV cross-reactive response. All positive peptides were grouped according the ZIKV specificity of immune response (FIG. 11E). Numbers in parentheses indicate the number of positive peptides in this group.

| Sequence | % IFNγ+ CD8+ T cells, MR766 (CD3+CD8+ T cells) | SFC/10^6 CD8+ T cells, MR766 (CD8+ T cells [1]) | SFC/10^6 CD8+ T cells, S221 (CD8+ T cells [2]) | % IFNγ+ CD8+ T cells, FSS13025 (CD3+CD8+ T cells) | simultaneous IFNγ and TNFα secretion by peptide-stimulated CD8+ T cells (CD3+CD8+ T cells) | SFC/10^6 CD8+ T cells, FSS13025 (CD8+ T cells [1]) | immunodominance in IFNγ ELISPOT (CD8+ T cells [1]) | percentage of IFNγ-producing cells among antigen experienced (CD44+CD62L-) CD8+ T cells (CD44+CD62L- CD8+ T cells) | percentage of epitope-specific cells among antigen experienced (CD44+CD62L-) CD8+ T cells (CD44+CD62L- CD8+ T cells; mice immunized with the 4 ZIKV/DENV cross-reactive peptides) | % IFNγ+ CD8+ T cells, S221 (CD8+ T cells [3]) | ZIKV/DENV cross-reactivity in DENV2-infected mice (IFNγ ELISPOT and IFNγ ICS) (CD8+ T cells [3]) | simultaneous IFNγ and TNFα production by peptide-stimulated CD8+ T cells (CD3+CD8+ T cells; ZIKV MR766-infected mice) | percentage of epitope-specific IFNγ-producing CD8+ T cells (CD8+ T cells [4]) |
| --- | --- | --- | --- | --- | --- | --- | --- | --- | --- | --- | --- | --- | --- |
| LPEIVREAI [FSS/MR-NS3188-196] | (0.23%) | 179 SFC/10^6 CD8+ T cells | 63 SFC/10^6 CD8+ T cells | – | – | – | – | – | – | – | – | – | – |
| RPGAFCIKVL [FSS/MR-NS4B426-435] | (2.36%) | 1362 SFC/10^6 CD8+ T cells | 90 SFC/10^6 CD8+ T cells | (2.28%) | simultaneously secreted both IFNγ and TNFα | 1223 SFC/10^6 CD8+ T cells | most immunodominant epitope | 1.63±0.76% | 1.52±0.42% | (0.3%) | positive in both IFNγ ELISPOT and IFNγICS assays | – | – |
| RPRVCTKEEF [FSS/MR-NS5140-149] | (0.24%) | 311 SFC/10^6 CD8+ T cells | – | – | – | 162 SFC/10^6 CD8+ T cells | – | – | – | 0.28% | – | – | – |
| RVCSDHAAL [FSS/MR-NS3581-589] | (0.31%) | 411 SFC/10^6 CD8+ T cells | 44 SFC/10^6 CD8+ T cells | – | – | – | – | – | – | – | – | – | – |
| SPRLDVAL [FSS/MR-NS2B68-75] | (0.77%) | 993 SFC/10^6 CD8+ T cells | – | (0.56%) | – | 963 SFC/10^6 CD8+ T cells | immunodominant | 0.61±0.47% | – | – | – | stimulated simultaneous production of IFNγ and TNFα | – |
| TPRESMLLAL [FSS/MR-NS2A89-99] | (0.95%) | 823 SFC/10^6 CD8+ T cells | 55 SFC/10^6 CD8+ T cells | (0.56%) | simultaneously secreted both IFNγ and TNFα | 807 SFC/10^6 CD8+ T cells | immunodominant | – | – | – | – | – | – |
| VPRTDNITL [FSS-NS2A133-141] | (1.07%) | 1182 SFC/10^6 CD8+ T cells | – | (0.9%) | – | 786 SFC/10^6 CD8+ T cells | immunodominant | 0.86%±0.71 | – | – | – | – | – |
| VPTGRTTVV (VPTGRTTW) [FSS/MR-NS5539-546] | (0.25%) | 121 SFC/10^6 CD8+ T cells | 54 SFC/10^6 CD8+ T cells | – | – | – | – | – | – | (0.18%) | positive in both IFNγ ELISPOT and IFNγICS assays | – | – |
| VVMILGGFSM [MR-NS2A31-40] | (0.37%) | 106 SFC/10^6 CD8+ T cells | 51 SFC/10^6 CD8+ T cells | – | – | – | – | – | – | – | – | – | 0.42±0.12% |
